{"source": "paper PMC6688997", "about": "(Nature Communications, 2019)", "key": {"FES": {"biological_target": "FES (Homo sapiens, UniProt P07332)", "sequence (P07332 whole entry)": "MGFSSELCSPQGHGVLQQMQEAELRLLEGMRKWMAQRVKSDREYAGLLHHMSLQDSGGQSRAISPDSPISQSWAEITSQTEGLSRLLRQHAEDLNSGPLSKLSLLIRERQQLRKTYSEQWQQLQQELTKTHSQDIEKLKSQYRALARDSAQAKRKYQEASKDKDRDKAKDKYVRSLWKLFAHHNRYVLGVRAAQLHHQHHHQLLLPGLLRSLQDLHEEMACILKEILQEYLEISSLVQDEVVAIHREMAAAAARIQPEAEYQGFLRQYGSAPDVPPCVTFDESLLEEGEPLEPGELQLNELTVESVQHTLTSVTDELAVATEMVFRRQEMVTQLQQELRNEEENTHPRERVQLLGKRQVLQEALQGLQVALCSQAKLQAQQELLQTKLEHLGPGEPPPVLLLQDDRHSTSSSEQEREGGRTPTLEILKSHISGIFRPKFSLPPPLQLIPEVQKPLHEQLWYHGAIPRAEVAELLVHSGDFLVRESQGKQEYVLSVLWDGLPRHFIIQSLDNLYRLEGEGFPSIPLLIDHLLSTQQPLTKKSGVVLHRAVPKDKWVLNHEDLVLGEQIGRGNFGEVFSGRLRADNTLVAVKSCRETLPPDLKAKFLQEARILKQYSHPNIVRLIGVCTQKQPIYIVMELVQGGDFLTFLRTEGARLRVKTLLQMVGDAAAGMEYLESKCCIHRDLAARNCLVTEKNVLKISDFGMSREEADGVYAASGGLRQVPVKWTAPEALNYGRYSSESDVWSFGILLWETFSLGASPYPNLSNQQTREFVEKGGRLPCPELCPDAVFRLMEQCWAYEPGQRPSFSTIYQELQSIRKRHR", "test": "Kinase assay, ATP Km", "type": "biochemical"}, "PHKG1": {"biological_target": "T1, PHKG1 (Homo sapiens, UniProt Q16816)", "T1 construct": "purchased Carna Biosciences", "test": "Kinase assay, ATP Km", "type": "biochemical"}, "FYN(isoform a) [1]": {"biological_target": "T2, FYN(isoform a) (Homo sapiens, UniProt P06241)", "T2 sequence (P06241 whole entry, canonical isoform)": "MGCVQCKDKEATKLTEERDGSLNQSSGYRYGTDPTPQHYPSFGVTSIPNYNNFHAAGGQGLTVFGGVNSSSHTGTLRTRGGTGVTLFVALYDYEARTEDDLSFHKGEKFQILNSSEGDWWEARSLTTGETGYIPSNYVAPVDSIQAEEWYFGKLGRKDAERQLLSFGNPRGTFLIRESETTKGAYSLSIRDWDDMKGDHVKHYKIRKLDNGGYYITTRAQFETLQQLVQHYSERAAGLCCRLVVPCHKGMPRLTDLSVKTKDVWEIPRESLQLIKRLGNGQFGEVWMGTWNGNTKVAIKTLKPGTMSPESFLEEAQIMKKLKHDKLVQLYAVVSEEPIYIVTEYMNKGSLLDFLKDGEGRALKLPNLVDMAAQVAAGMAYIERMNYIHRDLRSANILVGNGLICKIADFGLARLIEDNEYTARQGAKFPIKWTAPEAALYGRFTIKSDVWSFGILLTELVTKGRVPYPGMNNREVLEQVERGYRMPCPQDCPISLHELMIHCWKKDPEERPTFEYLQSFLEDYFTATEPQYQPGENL", "test": "Kinase assay, ATP Km", "type": "biochemical"}, "CLK2": {"biological_target": "CLK2 (Homo sapiens, UniProt P49760)", "test": "Kinase assay, ATP Km", "type": "biochemical"}, "[2]": {"system": "SLC34A2-ROS1-WT overexpressing HCC78xe3 cells", "test": "Cell viability in 3D culture, CellTiter-Glo", "type": "cell-based", "details": "72 h"}, "RON": {"biological_target": "T3, RON (Homo sapiens, UniProt Q04912)", "T3 construct": "purchased Carna Biosciences", "test": "Kinase assay, ATP Km", "type": "biochemical"}, "JAK2": {"biological_target": "T4, JAK2 (Homo sapiens, UniProt O60674)", "T4 construct": "purchased Carna Biosciences", "test": "Kinase assay, ATP Km", "type": "biochemical"}, "[3]": {"system": "LMNA-NTRK1 induced Ba/F3 cells", "test": "CellTiter-Glo cell viability assay", "type": "cell-based, murine", "details": "Mus musculus, BaF3, 72 h; read-out: IC50", "procedure": "All media were supplemented with 100 U/ml penicillin, and 100 µg/ml streptomycin. All cells were routinely tested and verified to be free of mycoplasma contamination.\nTo assess cell viability after 72-h drug treatment, 2000–5000 cells were plated in replicates of three to six in 96-well plates. Following the drug treatments, the cells were incubated with CellTiter-Glo assay reagent (Promega, Madison, WI, USA) for 10 min. […] GraphPad Prism version 7.0 (GraphPad Software, La Jolla, CA, USA) was used to graphically display the data. IC50 values were determined using a nonlinear regression model with a sigmoidal dose response in GraphPad."}, "MARK3": {"biological_target": "MARK3 (Homo sapiens, UniProt P27448)", "test": "Kinase assay, ATP Km", "type": "biochemical"}, "ACK": {"biological_target": "T5, ACK (Homo sapiens, UniProt Q07912)", "T5 construct": "purchased Carna Biosciences, Inc. (Kobe, Japan); assay run by the vendor", "test": "Kinase assay, 1 mM ATP", "type": "biochemical"}, "FGFR2": {"biological_target": "FGFR2 (Homo sapiens, UniProt P21802)", "sequence (P21802 22-821)": "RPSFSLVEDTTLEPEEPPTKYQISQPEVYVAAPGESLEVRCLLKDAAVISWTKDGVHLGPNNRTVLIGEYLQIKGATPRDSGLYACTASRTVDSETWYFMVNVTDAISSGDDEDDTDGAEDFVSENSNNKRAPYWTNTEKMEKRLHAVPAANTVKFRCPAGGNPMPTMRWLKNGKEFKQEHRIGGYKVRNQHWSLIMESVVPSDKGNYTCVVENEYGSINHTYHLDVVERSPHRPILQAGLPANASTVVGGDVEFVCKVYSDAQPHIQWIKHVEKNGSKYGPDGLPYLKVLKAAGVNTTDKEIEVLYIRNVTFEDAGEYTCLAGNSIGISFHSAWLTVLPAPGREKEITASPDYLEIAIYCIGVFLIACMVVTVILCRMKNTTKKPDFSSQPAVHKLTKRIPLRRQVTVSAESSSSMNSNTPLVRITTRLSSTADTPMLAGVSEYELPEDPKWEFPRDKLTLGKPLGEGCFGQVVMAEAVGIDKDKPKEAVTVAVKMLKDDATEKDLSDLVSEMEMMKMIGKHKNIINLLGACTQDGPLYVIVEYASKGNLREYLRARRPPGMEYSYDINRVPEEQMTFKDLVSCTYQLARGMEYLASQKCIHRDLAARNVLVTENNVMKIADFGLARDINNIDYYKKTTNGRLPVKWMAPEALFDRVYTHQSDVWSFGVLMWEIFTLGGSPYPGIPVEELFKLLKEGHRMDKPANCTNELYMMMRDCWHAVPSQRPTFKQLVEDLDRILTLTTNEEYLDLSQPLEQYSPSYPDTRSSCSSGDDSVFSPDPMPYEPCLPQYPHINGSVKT", "test": "Kinase assay, 1 mM ATP", "type": "biochemical", "experimental": "(§1) An off-chip mobility shift assay was performed by Carna Biosciences, Inc. (Kobe, Japan), according to their product instructions. […] The IC50 values were estimated according to the four-parameter logistic model."}, "PDGFRα": {"biological_target": "T6, PDGFRα (Homo sapiens, UniProt P16234)", "T6 construct": "purchased Carna Biosciences", "T6 sequence (P16234 24-1089)": "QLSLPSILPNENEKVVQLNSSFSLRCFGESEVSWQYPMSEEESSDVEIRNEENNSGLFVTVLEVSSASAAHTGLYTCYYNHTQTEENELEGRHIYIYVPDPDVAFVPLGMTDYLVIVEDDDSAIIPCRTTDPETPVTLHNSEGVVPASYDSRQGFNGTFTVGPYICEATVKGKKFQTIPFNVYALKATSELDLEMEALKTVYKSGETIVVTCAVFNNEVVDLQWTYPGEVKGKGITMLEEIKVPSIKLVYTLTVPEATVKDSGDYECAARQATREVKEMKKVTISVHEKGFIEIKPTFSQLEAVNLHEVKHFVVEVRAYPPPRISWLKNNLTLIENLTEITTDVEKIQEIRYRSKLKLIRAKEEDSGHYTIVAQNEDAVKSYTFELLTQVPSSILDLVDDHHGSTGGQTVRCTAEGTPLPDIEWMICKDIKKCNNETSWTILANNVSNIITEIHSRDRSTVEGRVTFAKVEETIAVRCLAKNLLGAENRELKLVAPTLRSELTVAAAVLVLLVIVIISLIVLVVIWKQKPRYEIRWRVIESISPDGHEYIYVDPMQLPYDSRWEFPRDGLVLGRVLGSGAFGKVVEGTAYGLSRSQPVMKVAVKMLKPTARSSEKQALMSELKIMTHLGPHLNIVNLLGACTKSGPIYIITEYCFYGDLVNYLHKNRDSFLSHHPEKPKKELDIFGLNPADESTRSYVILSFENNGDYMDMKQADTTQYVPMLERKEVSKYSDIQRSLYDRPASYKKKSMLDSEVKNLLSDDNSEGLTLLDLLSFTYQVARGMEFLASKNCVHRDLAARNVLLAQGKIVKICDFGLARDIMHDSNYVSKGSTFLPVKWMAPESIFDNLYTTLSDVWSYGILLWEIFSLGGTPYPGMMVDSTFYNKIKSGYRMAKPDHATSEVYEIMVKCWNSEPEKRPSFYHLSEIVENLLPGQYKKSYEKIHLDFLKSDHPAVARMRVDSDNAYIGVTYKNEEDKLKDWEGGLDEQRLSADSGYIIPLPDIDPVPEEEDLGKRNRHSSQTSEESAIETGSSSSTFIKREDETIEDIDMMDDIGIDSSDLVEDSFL", "test": "Kinase assay, 1 mM ATP", "type": "biochemical", "experimental": "as §1"}, "MER": {"biological_target": "T7, MER (Homo sapiens, UniProt Q12866)", "T7 construct": "purchased Carna Biosciences", "test": "Kinase assay, 1 mM ATP", "type": "biochemical", "experimental": "as §1"}, "RSK4": {"biological_target": "T8, RSK4 (Homo sapiens, UniProt Q9UK32)", "T8 construct": "purchased Carna Biosciences", "test": "Kinase assay, 1 mM ATP", "type": "biochemical", "experimental": "as §1"}, "GSK3α": {"biological_target": "GSK3α (Homo sapiens, UniProt P49840)", "test": "Kinase assay, 1 mM ATP", "type": "biochemical", "experimental": "as §1"}, "RET(Y791F)": {"biological_target": "T9, RET(Y791F) (Homo sapiens, UniProt P07949, Y791F)", "T9 construct": "purchased Carna Biosciences", "test": "Kinase assay, 1 mM ATP", "type": "biochemical", "experimental": "as §1"}, "SRM": {"biological_target": "T10, SRM (Homo sapiens, UniProt Q9H3Y6)", "T10 construct": "purchased Carna Biosciences", "test": "Kinase assay, 1 mM ATP", "type": "biochemical", "experimental": "as §1"}, "EGFR": {"biological_target": "EGFR (Homo sapiens, UniProt P00533)", "test": "Kinase assay, 1 mM ATP", "type": "biochemical", "experimental": "as §1"}, "NEK1": {"biological_target": "T11, NEK1 (Homo sapiens, UniProt Q96PY6)", "T11 construct": "purchased Carna Biosciences", "test": "Kinase assay, 1 mM ATP", "type": "biochemical", "experimental": "as §1"}, "HER2": {"biological_target": "HER2 (Homo sapiens, UniProt P04626)", "test": "Kinase assay, 1 mM ATP", "type": "biochemical", "experimental": "as §1"}, "FLT1": {"biological_target": "T12, FLT1 (Homo sapiens, UniProt P17948)", "T12 construct": "purchased Carna Biosciences", "test": "Kinase assay, 1 mM ATP", "type": "biochemical", "experimental": "as §1"}, "RSK1": {"biological_target": "T13, RSK1 (Homo sapiens, UniProt Q15418)", "T13 construct": "purchased Carna Biosciences", "test": "Kinase assay, 1 mM ATP", "type": "biochemical", "experimental": "as §1"}, "FLT3": {"biological_target": "T14, FLT3 (Homo sapiens, UniProt P36888)", "T14 construct": "purchased Carna Biosciences", "test": "Kinase assay, 1 mM ATP", "type": "biochemical", "experimental": "as §1"}, "DYRK1A": {"biological_target": "DYRK1A (Homo sapiens, UniProt Q13627)", "test": "Kinase assay, 1 mM ATP", "type": "biochemical", "experimental": "as §1"}, "HCK": {"biological_target": "HCK (Homo sapiens, UniProt P08631)", "test": "Kinase assay, 1 mM ATP", "type": "biochemical", "experimental": "as §1"}, "NEK7": {"biological_target": "NEK7 (Homo sapiens, UniProt Q8TDX7)", "test": "Kinase assay, 1 mM ATP", "type": "biochemical", "experimental": "as §1"}, "AurB": {"biological_target": "AurB (Homo sapiens, UniProt Q96GD4)", "test": "Kinase assay, 1 mM ATP", "type": "biochemical", "experimental": "as §1"}, "CDK2/CycE1": {"biological_target": "CDK2/CycE1 (Homo sapiens, UniProt P24941)", "test": "Kinase assay, 1 mM ATP", "type": "biochemical", "experimental": "as §1"}, "CK2α1/β": {"biological_target": "CK2α1/β (Homo sapiens, UniProt P68400)", "test": "Kinase assay, 1 mM ATP", "type": "biochemical", "experimental": "as §1"}, "p38α": {"biological_target": "p38α (Homo sapiens, UniProt Q16539)", "test": "Kinase assay, 1 mM ATP", "type": "biochemical", "experimental": "as §1"}, "EGFR(d746-750/T790M)": {"biological_target": "T15, EGFR(d746-750/T790M) (Homo sapiens, UniProt P00533, DEL746-750/T790M)", "T15 construct": "purchased Carna Biosciences", "test": "Kinase assay, 1 mM ATP", "type": "biochemical", "experimental": "as §1"}, "PDK1": {"biological_target": "PDK1 (Homo sapiens, UniProt O15530)", "test": "Kinase assay, 1 mM ATP", "type": "biochemical", "experimental": "as §1"}, "DYRK1B": {"biological_target": "DYRK1B (Homo sapiens, UniProt Q9Y463)", "test": "Kinase assay, 1 mM ATP", "type": "biochemical", "experimental": "as §1"}, "MET": {"biological_target": "T16, MET (Homo sapiens, UniProt P08581)", "T16 construct": "purchased Carna Biosciences", "T16 sequence (P08581 25-1390)": "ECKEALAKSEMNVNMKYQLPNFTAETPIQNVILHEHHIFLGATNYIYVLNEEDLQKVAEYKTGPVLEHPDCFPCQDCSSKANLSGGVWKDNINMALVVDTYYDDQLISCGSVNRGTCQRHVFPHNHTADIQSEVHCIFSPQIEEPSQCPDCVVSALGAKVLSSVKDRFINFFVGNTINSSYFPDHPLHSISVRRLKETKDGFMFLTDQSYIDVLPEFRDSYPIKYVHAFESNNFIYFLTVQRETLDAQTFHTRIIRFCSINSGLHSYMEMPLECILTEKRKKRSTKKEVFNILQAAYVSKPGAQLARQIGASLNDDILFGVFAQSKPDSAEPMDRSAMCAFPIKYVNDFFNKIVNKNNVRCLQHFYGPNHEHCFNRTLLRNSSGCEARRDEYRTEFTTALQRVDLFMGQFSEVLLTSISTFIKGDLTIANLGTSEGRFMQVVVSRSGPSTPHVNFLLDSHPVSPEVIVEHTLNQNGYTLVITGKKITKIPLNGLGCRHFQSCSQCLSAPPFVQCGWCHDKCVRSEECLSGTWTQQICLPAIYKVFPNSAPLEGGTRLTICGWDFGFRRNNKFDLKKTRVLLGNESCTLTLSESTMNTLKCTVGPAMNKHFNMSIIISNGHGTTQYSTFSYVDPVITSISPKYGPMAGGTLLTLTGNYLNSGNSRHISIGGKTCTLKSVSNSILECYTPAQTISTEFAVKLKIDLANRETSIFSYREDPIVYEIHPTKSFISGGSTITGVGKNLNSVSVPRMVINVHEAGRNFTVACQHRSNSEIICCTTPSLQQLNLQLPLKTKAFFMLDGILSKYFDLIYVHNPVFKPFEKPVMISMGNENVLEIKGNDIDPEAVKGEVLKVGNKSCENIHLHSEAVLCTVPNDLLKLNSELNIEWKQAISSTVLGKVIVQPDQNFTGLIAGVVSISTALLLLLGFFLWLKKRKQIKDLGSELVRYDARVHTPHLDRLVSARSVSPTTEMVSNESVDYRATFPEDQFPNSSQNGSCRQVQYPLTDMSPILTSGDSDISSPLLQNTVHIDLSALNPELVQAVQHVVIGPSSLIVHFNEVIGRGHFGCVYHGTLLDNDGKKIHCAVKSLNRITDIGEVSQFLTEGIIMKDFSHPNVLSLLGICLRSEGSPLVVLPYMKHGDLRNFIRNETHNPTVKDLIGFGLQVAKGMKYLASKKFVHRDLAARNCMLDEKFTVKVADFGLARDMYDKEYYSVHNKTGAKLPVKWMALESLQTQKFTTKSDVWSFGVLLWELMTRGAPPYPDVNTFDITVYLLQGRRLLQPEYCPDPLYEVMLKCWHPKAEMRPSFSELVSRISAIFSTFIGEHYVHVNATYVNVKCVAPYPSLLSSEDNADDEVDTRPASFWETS", "test": "Kinase assay, 1 mM ATP", "type": "biochemical", "experimental": "as §1"}, "BRSK2": {"biological_target": "BRSK2 (Homo sapiens, UniProt Q8IWQ3)", "test": "Kinase assay, ATP Km", "type": "biochemical"}, "CK1δ": {"biological_target": "CK1δ (Homo sapiens, UniProt P48730)", "sequence (P48730 whole entry)": "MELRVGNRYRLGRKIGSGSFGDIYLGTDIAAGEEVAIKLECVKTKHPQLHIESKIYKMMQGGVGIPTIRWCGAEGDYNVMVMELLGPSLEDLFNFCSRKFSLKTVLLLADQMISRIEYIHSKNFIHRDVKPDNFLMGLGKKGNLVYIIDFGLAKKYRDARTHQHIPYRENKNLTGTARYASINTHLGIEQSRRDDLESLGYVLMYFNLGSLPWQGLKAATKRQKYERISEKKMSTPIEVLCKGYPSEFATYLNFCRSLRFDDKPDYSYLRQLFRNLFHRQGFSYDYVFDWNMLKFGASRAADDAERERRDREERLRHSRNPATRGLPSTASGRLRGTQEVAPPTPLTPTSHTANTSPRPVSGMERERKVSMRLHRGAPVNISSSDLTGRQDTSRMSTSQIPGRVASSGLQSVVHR", "test": "Kinase assay, ATP Km", "type": "biochemical"}, "FYN(isoform a) [4]": {"biological_target": "T2, FYN(isoform a)", "test": "Kinase assay, 1 mM ATP", "type": "biochemical", "set-up": "purchased Carna Biosciences", "experimental": "as §1"}, "FYN(isoform b)": {"biological_target": "FYN(isoform b) (Homo sapiens, UniProt P06241)", "test": "Kinase assay, 1 mM ATP", "type": "biochemical", "set-up": "purchased Carna Biosciences", "experimental": "as §1"}, "NIM1K": {"biological_target": "T17, NIM1K (Homo sapiens, UniProt Q8IY84)", "T17 construct": "purchased Carna Biosciences", "test": "Kinase assay, ATP Km", "type": "biochemical"}, "PKACβ": {"biological_target": "PKACβ (Homo sapiens, UniProt P22694)", "test": "Kinase assay, ATP Km", "type": "biochemical"}}, "data": [{"smiles": "C[C@@H](N)COc1ccc(-c2cnc3ccc(N[C@H](C)c4cccc(F)c4)nn23)cc1.O=C(O)CCCCC(=O)O", "note": "[DS-6051b]", "values": [{"measurement": "inhibition at 0.04 µM", "setting": "FES", "result": 41.2, "unit": "%"}, {"measurement": "inhibition at 0.04 µM", "setting": "PHKG1", "result": 48.7, "unit": "%"}, {"measurement": "inhibition at 0.04 µM", "setting": "FYN(isoform a) [1]", "result": 42.6, "unit": "%"}, {"measurement": "inhibition at 0.04 µM", "setting": "CLK2", "result": 9.9, "unit": "%"}, {"measurement": "Cell growth inhibition", "setting": "[2]", "result": "inhibited cell growth"}, {"measurement": "inhibition at 0.04 µM", "setting": "RON", "result": 1, "unit": "%"}, {"measurement": "inhibition at 0.04 µM", "setting": "JAK2", "result": 97.6, "unit": "%"}, {"measurement": "% Inhibition", "setting": "JAK2; 0.04μM, ATP Km", "result": "potently inhibited"}, {"measurement": "IC50", "setting": "[3]", "result": 3.35, "unit": "nM"}, {"measurement": "inhibition at 0.04 µM", "setting": "MARK3", "result": 27.7, "unit": "%"}, {"measurement": "% Inhibition", "setting": "ACK; 0.2μM, 1 mM ATP", "result": "almost completely inhibited"}, {"measurement": "inhibition at 0.2 µM", "setting": "ACK; 0.2μM, 1 mM ATP", "result": 96.1, "unit": "%"}, {"measurement": "IC50", "setting": "ACK; ATP: 1 mM", "result": 15.4, "unit": "nM"}, {"measurement": "inhibition at 0.2 µM", "setting": "FGFR2", "result": 4.8, "unit": "%"}, {"measurement": "inhibition at 0.2 µM", "setting": "PDGFRα", "result": 5.7, "unit": "%"}, {"measurement": "inhibition at 0.2 µM", "setting": "MER", "result": 7.1, "unit": "%"}, {"measurement": "inhibition at 0.2 µM", "setting": "RSK4", "result": -5.4, "unit": "%"}, {"measurement": "inhibition at 0.2 µM", "setting": "GSK3α", "result": -3.4, "unit": "%"}, {"measurement": "inhibition at 0.2 µM", "setting": "RET(Y791F)", "result": -4.3, "unit": "%"}, {"measurement": "inhibition at 0.2 µM", "setting": "SRM", "result": -3.1, "unit": "%"}, {"measurement": "inhibition at 0.2 µM", "setting": "EGFR", "result": 3.7, "unit": "%"}, {"measurement": "inhibition at 0.2 µM", "setting": "NEK1", "result": -5.2, "unit": "%"}, {"measurement": "inhibition at 0.2 µM", "setting": "HER2", "result": 8.7, "unit": "%"}, {"measurement": "inhibition at 0.2 µM", "setting": "FLT1", "result": -3.1, "unit": "%"}, {"measurement": "inhibition at 0.2 µM", "setting": "RSK1", "result": 2.1, "unit": "%"}, {"measurement": "inhibition at 0.2 µM", "setting": "FLT3", "result": 18.8, "unit": "%"}, {"measurement": "inhibition at 0.2 µM", "setting": "DYRK1A", "result": -11.4, "unit": "%"}, {"measurement": "inhibition at 0.2 µM", "setting": "HCK", "result": -6, "unit": "%"}, {"measurement": "inhibition at 0.2 µM", "setting": "NEK7", "result": -2, "unit": "%"}, {"measurement": "inhibition at 0.2 µM", "setting": "AurB", "result": -12.2, "unit": "%"}, {"measurement": "inhibition at 0.2 µM", "setting": "CDK2/CycE1", "result": -20.2, "unit": "%"}, {"measurement": "inhibition at 0.2 µM", "setting": "CK2α1/β", "result": -12.2, "unit": "%"}, {"measurement": "inhibition at 0.2 µM", "setting": "p38α", "result": -6.7, "unit": "%"}, {"measurement": "inhibition at 0.2 µM", "setting": "EGFR(d746-750/T790M)", "result": -0.9, "unit": "%"}, {"measurement": "inhibition at 0.2 µM", "setting": "PDK1", "result": -4.9, "unit": "%"}, {"measurement": "inhibition at 0.2 µM", "setting": "DYRK1B", "result": -8.2, "unit": "%"}, {"measurement": "inhibition at 0.2 µM", "setting": "MET", "result": -6.2, "unit": "%"}, {"measurement": "inhibition at 0.04 µM", "setting": "BRSK2", "result": 21.1, "unit": "%"}, {"measurement": "inhibition at 0.04 µM", "setting": "CK1δ", "result": 3.5, "unit": "%"}, {"measurement": "inhibition at 0.2 µM", "setting": "FYN(isoform a) [4]", "result": 2.2, "unit": "%"}, {"measurement": "inhibition at 0.2 µM", "setting": "FYN(isoform b)", "result": 0.123, "unit": "%"}, {"measurement": "inhibition at 0.04 µM", "setting": "NIM1K", "result": -2.8, "unit": "%"}, {"measurement": "inhibition at 0.04 µM", "setting": "PKACβ", "result": -3, "unit": "%"}]}]}
